Where two headings read alike, the source gives them in different places.
Molecular target: T1, P2Y14 receptor (Homo sapiens, UniProt Q15391)
T1 construct: expressed in transfected cells; host or cells: HEK293
T1 sequence (Q15391 1-338): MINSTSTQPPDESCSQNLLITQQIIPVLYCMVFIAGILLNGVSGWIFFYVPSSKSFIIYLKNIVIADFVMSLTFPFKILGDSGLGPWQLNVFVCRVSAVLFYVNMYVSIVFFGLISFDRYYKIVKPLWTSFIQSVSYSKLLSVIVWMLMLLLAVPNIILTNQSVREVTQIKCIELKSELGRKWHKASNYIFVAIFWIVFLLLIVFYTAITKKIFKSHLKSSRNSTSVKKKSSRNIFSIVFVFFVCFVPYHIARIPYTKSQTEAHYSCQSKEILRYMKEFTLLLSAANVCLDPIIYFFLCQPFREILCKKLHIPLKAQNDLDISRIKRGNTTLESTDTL
Assay: cAMP inhibition assay in HEK293 cells stably transfected with the P2Y14 receptor (UDPG-stimulated, cAMP Glo)
Format: cell-based
Description: An HEK293 cell strain stably transfected with the P2Y14 receptor was cultured in a DMEM culture medium (containing […], 100 U/mL penicillin, and 100 μg/mL streptomycin). Before the experiment, the cells were seeded into a culture plate at a density of 1×10^5 cells/well, and a serum-free culture medium was used instead. The cells were cultured at 37° C. with […] and 5% CO2 humidity. IBMX was added to inhibit the activity of PDEs, thereby ensuring a relatively high level of cAMP. The AC agonist Forskolin (30 μM) was adopted to stimulate the production of cellular cAMP. Test compounds at different concentrations (0.01 nm, 0.1 nm, 1 nm, 10 nm, and 100 nm) were added in advance, and PPTN was used as a positive control. Subsequently, 1 μM P2Y14 receptor agonist UDPG was added, and after 4 h, the content of intracellular cAMP was measured using a cAMP Glo™ Assay kit (PROMEGA Co. Ltd., USA). The inhibition rate was calculated based on the cAMP content.

[1] = 100 nM compound, HEK293 stably transfected with P2Y14 receptor, 30 μM Forskolin, 1 μM UDPG, 4 h, inhibition rate from cAMP content, read-out: Inhibition @ 100 nM

SMILES | inhibition at 0.1 µM [1] [%] | inhibition at 0.1 µM (HEK293, read-out: Inhibition @ 100 nM) [%]
Cc1ccc(C(=O)Nc2cc(C(=O)O)sc2Oc2ccc(F)cc2)cc1 [Compound 2, 5-(4-fluorophenoxy)-4-(4-methylbenzamido)thiophene-2-carboxylic acid] | 70.4 | –
Cc1ccc(C(=O)Nc2cc(C(=O)O)sc2Oc2ccccc2)cc1 [Compound 3-1] | 44.1 | –
Cc1ccc(C(=O)Nc2cc(C(=O)O)sc2Oc2cccc(F)c2)cc1 [Compound 3-2] | 69.6 | –
Cc1ccc(C(=O)Nc2cc(C(=O)O)sc2Oc2ccccc2F)cc1 [Compound 3-3] | 66 | –
Cc1ccc(C(=O)Nc2cc(C(=O)O)sc2Oc2ccc(Cl)cc2)cc1 [Compound 3-4] | 30.9 | –
Cc1ccc(C(=O)Nc2cc(C(=O)O)sc2Oc2cccc(Cl)c2)cc1 [Compound 3-5] | 36.2 | –
Cc1ccc(C(=O)Nc2cc(C(=O)O)sc2Oc2ccccc2Cl)cc1 [Compound 3-6] | 40.4 | –
Cc1ccc(C(=O)Nc2cc(C(=O)O)sc2Oc2ccc(C(F)(F)F)cc2)cc1 [Compound 3-7] | 62.6 | –
Cc1ccc(C(=O)Nc2cc(C(=O)O)sc2Oc2cccc(C(F)(F)F)c2)cc1 [Compound 3-8] | 52.8 | –
Cc1ccc(C(=O)Nc2cc(C(=O)O)sc2Oc2ccccc2C(F)(F)F)cc1 [Compound 3-9] | 57.1 | –
Cc1ccc(C(=O)Nc2cc(C(=O)O)sc2Oc2ccc(OC(F)(F)F)cc2)cc1 [Compound 3-10] | 32.7 | –
CC(=O)c1ccc(Oc2sc(C(=O)O)cc2NC(=O)c2ccc(C)cc2)cc1 [Compound 3-11] | 34.5 | –
Cc1ccc(C(=O)Nc2cc(C(=O)O)sc2Oc2ccc(C(=O)O)cc2)cc1 [Compound 3-12] | 44.1 | –
Cc1ccc(C(=O)Nc2cc(C(=O)O)sc2Oc2ccc(C#N)cc2)cc1 [Compound 3-13] | 46.2 | –
Cc1ccc(C(=O)Nc2cc(C(=O)O)sc2Oc2ccc(S(C)(=O)=O)cc2)cc1 [Compound 3-14] | 62.8 | –
Cc1ccc(Oc2sc(C(=O)O)cc2NC(=O)c2ccc(C)cc2)cc1 [Compound 3-15] | 88.4 | –
Cc1ccc(C(=O)Nc2cc(C(=O)O)sc2Oc2cccc(C)c2)cc1 [Compound 3-16] | 55.8 | –
Cc1ccc(C(=O)Nc2cc(C(=O)O)sc2Oc2ccccc2C)cc1 [Compound 3-17] | 45.8 | –
COc1ccc(Oc2sc(C(=O)O)cc2NC(=O)c2ccc(C)cc2)cc1 [Compound 3-18] | 69.8 | –
CCc1ccc(Oc2sc(C(=O)O)cc2NC(=O)c2ccc(C)cc2)cc1 [Compound 3-19] | 67.4 | –
CCCc1ccc(Oc2sc(C(=O)O)cc2NC(=O)c2ccc(C)cc2)cc1 [Compound 3-20] | 66.3 | –
Cc1ccc(C(=O)Nc2cc(C(=O)O)sc2Oc2ccc(C(C)C)cc2)cc1 [Compound 3-21] | 54.3 | –
Cc1ccc(C(=O)Nc2cc(C(=O)O)sc2Oc2ccc(C(C)(C)C)cc2)cc1 [Compound 3-22] | 34.6 | –
CC(=O)Nc1ccc(Oc2sc(C(=O)O)cc2NC(=O)c2ccc(C)cc2)cc1 [Compound 3-23] | 81.1 | –
Cc1ccc(C(=O)Nc2cc(C(=O)O)sc2Oc2ccc(C(=O)NCC3CS(=O)(=O)C3)cc2)cc1 [Compound 3-24] | 75.6 | –
Cc1ccc(C(=O)Nc2cc(C(=O)O)sc2Oc2ccc(C(=O)NCCC3CCOCC3)cc2)cc1 [Compound 3-25] | 49.5 | –
Cc1ccc(Nc2sc(C(=O)O)cc2NC(=O)c2ccc(C)cc2)cc1 [Compound 8, 4-(4-methylbenzamido)-5-(p-tolylamino)thiophene-2-carboxylic acid] | 75.6 | –
Cc1ccc(Sc2sc(C(=O)O)cc2NC(=O)c2ccc(C)cc2)cc1 [Compound 11, 4-(4-methylbenzamido)-5-(p-tolylthio)thiophene-2-carboxylic acid] | 75.6 | –
Cc1ccc(Oc2sc(C(=O)O)cc2NC(=O)c2ccccc2)cn1 [Compound 14, 5-((6-methylpyridin-3-yl)oxy)-4-(benzamido)thiophene-2-carboxylic acid] | 86.9 | –
Cc1ccc(Oc2sc(C(=O)O)cc2NC(=O)c2ccc(C)nc2)cn1 [Compound 17, 4-(6-methylnicotinamido)-5-((6-methylpyridin-3-yl)oxy)thiophene-2-carboxylic acid] | 65.1 | –

Continued, values first:

inhibition at 0.1 µM [1] [%] | inhibition at 0.1 µM (HEK293, read-out: Inhibition @ 100 nM) [%] | SMILES
62 | – | Cc1ccc(C(=O)Nc2cc(C(=O)O)sc2Oc2cccnc2)cc1 [Compound 6-1]
88.4 | – | Cc1ccc(C(=O)Nc2cc(C(=O)O)sc2Oc2ccc(F)nc2)cc1 [Compound 6-2]
74.9 | – | Cc1ccc(C(=O)Nc2cc(C(=O)O)sc2Oc2ccccn2)cc1 [Compound 6-3]
– | 81.3 | Cc1ccc(C(=O)Nc2cc(C(=O)O)sc2Oc2ccc(C)cn2)cc1 [Compound 6-4]
75.5 | – | Cc1ccc(C(=O)Nc2cc(C(=O)O)sc2Oc2ccc(F)cn2)cc1 [Compound 6-5]
43.5 | – | Cc1ccc(C(=O)Nc2cc(C(=O)O)sc2Oc2ccncc2)cc1 [Compound 6-6]
60.3 | – | Cc1ccc(C(=O)Nc2cc(C(=O)O)sc2Oc2ccsn2)cc1 [Compound 6-7]
82.3 | – | Cc1ccc(C(=O)Nc2cc(C(=O)O)sc2Nc2ccccc2)cc1 [Compound 9-1]
55.7 | – | Cc1ccc(C(=O)Nc2cc(C(=O)O)sc2Nc2ccc(F)cc2)cc1 [Compound 9-2]
71.5 | – | CCc1ccc(Nc2sc(C(=O)O)cc2NC(=O)c2ccc(C)cc2)cc1 [Compound 9-3]
59.8 | – | Cc1ccc(C(=O)Nc2cc(C(=O)O)sc2Nc2ccc(C(C)C)cc2)cc1 [Compound 9-4]
57.5 | – | Cc1ccc(C(=O)Nc2cc(C(=O)O)sc2Sc2ccccc2)cc1 [Compound 12-1]
61.4 | – | Cc1ccc(C(=O)Nc2cc(C(=O)O)sc2Sc2ccc(F)cc2)cc1 [Compound 12-2]
67.5 | – | CCc1ccc(Sc2sc(C(=O)O)cc2NC(=O)c2ccc(C)cc2)cc1 [Compound 12-3]
82.5 | – | Cc1ccc(C(=O)Nc2cc(C(=O)O)sc2Sc2ccc(C(F)(F)F)cc2)cc1 [Compound 12-4]
75.7 | – | Cc1ccc(Oc2sc(C(=O)O)cc2NC(=O)c2ccc(F)cc2)cn1 [Compound 15-1]

inhibition at 0.1 µM [1] [%] | inhibition at 0.1 µM (HEK293, read-out: Inhibition @ 100 nM) [%] | SMILES
75.4 | – | Cc1ccc(Oc2sc(C(=O)O)cc2NC(=O)c2ccc(Cl)cc2)cn1 [Compound 15-2]
46.4 | – | CCc1ccc(C(=O)Nc2cc(C(=O)O)sc2Oc2ccc(C)nc2)cc1 [Compound 15-3]
85.6 | – | CCCc1ccc(C(=O)Nc2cc(C(=O)O)sc2Oc2ccc(C)nc2)cc1 [Compound 15-4]
78.7 | – | Cc1ccc(Oc2sc(C(=O)O)cc2NC(=O)c2ccc(C(C)C)cc2)cn1 [Compound 15-5]
86.1 | – | Cc1ccc(Oc2sc(C(=O)O)cc2NC(=O)c2ccc(C(C)(C)C)cc2)cn1 [Compound 15-6]
94.6 | – | C#Cc1ccc(C(=O)Nc2cc(C(=O)O)sc2Oc2ccc(C)nc2)cc1 [Compound 15-7]
76.4 | – | Cc1ccc(Oc2sc(C(=O)O)cc2NC(=O)c2ccc(C#N)cc2)cn1 [Compound 15-8]
82.1 | – | Cc1ccc(Oc2sc(C(=O)O)cc2NC(=O)c2ccc(C(F)(F)F)cc2)cn1 [Compound 15-9]
91.3 | – | COc1ccc(C(=O)Nc2cc(C(=O)O)sc2Oc2ccc(C)nc2)cc1 [Compound 15-10]
79.3 | – | Cc1ccc(Oc2sc(C(=O)O)cc2NC(=O)c2ccc(C(=O)O)cc2)cn1 [Compound 15-11]
45.1 | – | Cc1ccc(C(=O)Nc2cc(C(=O)O)sc2Oc2ccc(C)nc2)nc1 [Compound 18-1]
48.2 | – | Cc1ccc(Oc2sc(C(=O)O)cc2NC(=O)c2cnc(C)cn2)cn1 [Compound 18-2]
56.2 | – | Cc1ccc(Oc2sc(C(=O)O)cc2NC(=O)c2cnc(C)nc2)cn1 [Compound 18-3]
46.8 | – | Cc1ccc(Oc2sc(C(=O)O)cc2NC(=O)c2ccc(N(C)C)cc2)cn1 [Compound 18-4]
45.8 | – | Cc1ccc(Oc2sc(C(=O)O)cc2NC(=O)c2cnn(C)c2)cn1 [Compound 18-5]

— patent US20260258010A1, “THIOPHENE-2-CARBOXYLIC ACID DERIVATIVE, AND PREPARATION METHOD THEREFOR AND MEDICAL USE THEREOF” (CHINA PHARMACEUTICAL UNIVERSITY, priority 2023, published 2026)
